Assay [1] deals with T1, 5-hydroxytryptamine receptor 1A (Homo sapiens) (UniProt P08908).
T1 sequence (whole entry): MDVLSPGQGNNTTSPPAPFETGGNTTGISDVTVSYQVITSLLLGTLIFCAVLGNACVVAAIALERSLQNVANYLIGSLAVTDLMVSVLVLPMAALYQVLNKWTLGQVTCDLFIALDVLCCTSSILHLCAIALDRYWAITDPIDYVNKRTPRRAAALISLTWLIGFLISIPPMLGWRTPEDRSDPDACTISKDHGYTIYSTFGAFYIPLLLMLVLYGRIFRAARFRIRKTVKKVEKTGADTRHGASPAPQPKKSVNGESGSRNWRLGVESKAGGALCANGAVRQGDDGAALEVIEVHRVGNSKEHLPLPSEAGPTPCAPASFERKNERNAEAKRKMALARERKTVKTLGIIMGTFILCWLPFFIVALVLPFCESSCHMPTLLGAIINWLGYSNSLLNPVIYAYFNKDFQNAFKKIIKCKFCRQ
Briefly: Antagonist activity at human 5HT1A receptor expressed in CHO cells assessed as inhibition of [35S]GTPgammaS binding relative to control. Type of assay: functional, cell-based. A general note: Binding of GTPγS marks nucleotide exchange on a G protein.

In assay [2] the target is Sodium-dependent serotonin transporter (Rattus norvegicus) (UniProt P31652). Briefly: Ratio Ki for drug to Ki for (2S)-8-Methyl-2-{[4-(6-nitroquinolin-2-yl)piperazin-1-yl]- methyl}-2,3-dihydro[1,4]dioxino[2,3-f ]quinoline against 5HT transporter in rat cortical membrane. Format: cell membranes.
Assay [3] addresses T2, 5-hydroxytryptamine receptor 1A (Homo sapiens, UniProt P08908).
T2 sequence (P08908 whole entry): T1 sequence (whole entry)
Description: Antagonist activity at human 5HT1A receptor expressed in CHO cells assessed as stimulation of [35S]GTPgammaS binding

In assay [4] the target is T2, 5-hydroxytryptamine receptor 1A. As to the kind of experiment: biochemical.
Description: Displacement of [3H]8-OH-DPAT from human 5HT1A receptor expressed in CHO cells
For assay [5], the target named is Sodium-dependent serotonin transporter (Rattus norvegicus, UniProt P31652).
Description: Displacement of [3H]paroxetine from 5HT transporter in rat cortical membrane
In assay [6] the target is Sodium-dependent serotonin transporter (Homo sapiens, UniProt P31645). Briefly: Antagonist activity at human 5HT transporter expressed in staurosporine treated human JAR cells. Type of assay: functional, cell-based.

pIC50, pKi: −log10 of the molar value.

Chain of Sodium-dependent serotonin transporter (Rattus norvegicus, UniProt P31652) (P31652 whole entry): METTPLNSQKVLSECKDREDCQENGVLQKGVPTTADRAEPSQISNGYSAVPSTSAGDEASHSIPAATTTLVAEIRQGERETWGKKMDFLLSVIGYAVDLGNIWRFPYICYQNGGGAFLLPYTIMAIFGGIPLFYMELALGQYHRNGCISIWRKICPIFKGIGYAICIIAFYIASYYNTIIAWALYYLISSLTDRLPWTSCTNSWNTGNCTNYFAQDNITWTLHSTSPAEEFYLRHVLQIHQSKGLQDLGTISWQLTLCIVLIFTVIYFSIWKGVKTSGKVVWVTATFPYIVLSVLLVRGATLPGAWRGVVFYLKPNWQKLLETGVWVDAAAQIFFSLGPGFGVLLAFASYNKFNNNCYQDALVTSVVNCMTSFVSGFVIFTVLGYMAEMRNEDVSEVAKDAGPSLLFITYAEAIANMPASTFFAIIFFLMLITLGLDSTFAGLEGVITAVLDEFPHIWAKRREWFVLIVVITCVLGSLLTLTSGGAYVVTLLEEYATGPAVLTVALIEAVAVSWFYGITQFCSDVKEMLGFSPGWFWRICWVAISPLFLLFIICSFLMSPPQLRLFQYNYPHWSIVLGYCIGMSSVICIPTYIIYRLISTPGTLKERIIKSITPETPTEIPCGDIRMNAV
Chain of Sodium-dependent serotonin transporter (Homo sapiens, UniProt P31645) (P31645 whole entry): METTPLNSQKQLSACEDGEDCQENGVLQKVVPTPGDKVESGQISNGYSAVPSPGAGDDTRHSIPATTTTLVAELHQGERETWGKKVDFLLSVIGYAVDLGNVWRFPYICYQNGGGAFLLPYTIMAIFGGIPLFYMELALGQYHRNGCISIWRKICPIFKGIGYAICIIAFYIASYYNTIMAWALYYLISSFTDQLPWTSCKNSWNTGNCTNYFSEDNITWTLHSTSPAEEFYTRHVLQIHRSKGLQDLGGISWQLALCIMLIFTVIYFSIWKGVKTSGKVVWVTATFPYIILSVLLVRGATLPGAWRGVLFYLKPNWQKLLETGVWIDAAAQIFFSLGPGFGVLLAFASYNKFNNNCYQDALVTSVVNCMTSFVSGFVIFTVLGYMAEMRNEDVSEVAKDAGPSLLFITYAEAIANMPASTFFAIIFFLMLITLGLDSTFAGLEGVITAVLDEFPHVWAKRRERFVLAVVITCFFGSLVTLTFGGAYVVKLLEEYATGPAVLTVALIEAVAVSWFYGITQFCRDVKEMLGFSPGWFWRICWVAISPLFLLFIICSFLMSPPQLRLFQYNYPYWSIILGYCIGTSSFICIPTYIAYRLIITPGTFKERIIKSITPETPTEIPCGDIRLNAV
Chain of Sodium-dependent serotonin transporter (Rattus norvegicus) (P31652 whole entry): as the sequence (P31652 whole entry) above

For `Cc1ccc2c3c(ccc2n1)OC[C@H](CN1CCN(c2ccc4cc([N+](=O)[O-])ccc4n2)CC1)O3`, the Imax in assay [1] turned out to be 79%. Also, the Ratio Ki in assay [2] was found to be 9. In addition, the pIC50 in assay [3] is 6.53.
For `Cc1ccc2c3c(ccc2n1)OC[C@H](CN1CCCN(c2ccc4cc(F)ccc4n2)CC1)O3`, the Imax in assay [1] came out at 74%. The values for the pKi in assay [4] and in assay [5] were 8.82 and 8.41, respectively. For the same compound, the negative logarithm of the IC50 (pIC50) in assay [3] was 7.15.
For the compound `Cc1ccc2c3c(ccc2n1)OC[C@H](CN1CCN(c2ccc4cc(Cl)ccc4n2)CC1)O3`, in assay [1], the Imax is 62%. In assay [5], this compound gave a pKi of 9.06. This compound also had a pIC50 in assay [3] of 6.11.
Turning to `Cc1ccc2c3c(ccc2n1)OC[C@H](CN1CCCN(c2ccc4ccccc4n2)CC1)O3`, in assay [1], the Imax was found to be 58%. For the same compound, the pKi was 8.17 in assay [4] and 8.13 in assay [5]. In addition, the pIC50 in assay [3] is 7.15.
On to `Cc1ccc2c3c(ccc2n1)OC[C@H](CN1CCN(c2ccc4cc(OC(F)(F)F)ccc4n2)CC1)O3`, for which the Imax in assay [1] came to 85%. The pKi in assay [4] is 6.76; in assay [5] it was 6.83. The negative-log IC50 (pIC50) in assay [3] is 6.23.
In the case of `Cc1ccc2c3c(ccc2n1)OC[C@H](CN1CCN(c2ccc4cc(C(N)=O)ccc4n2)CC1)O3`, the Imax in assay [1] is 100%. Moreover, the pKi in assay [5] was 7.77. In assay [3], this compound had a pIC50 of 6.79.
Regarding `Cc1ccc2c3c(ccc2n1)OC[C@H](CN1CCCN(c2ccc4cc(C#N)ccc4n2)CC1)O3`, the Imax in assay [1] was 53%. The pKi in assay [4] was 8.70. Further, the pIC50 in assay [3] is 7.24.
Consider `Cc1ccc2c3c(ccc2n1)OC[C@H](CN1CC=C(c2c[nH]c4ccccc24)CC1)O3`, for which the pIC50 in assay [6] was 6.84; in assay [3], 7.25. In addition, in assay [1], the Imax was 98.3%. Also, the pKi in assay [4] was 8.52; in assay [5], 8.63.
As to `Cc1ccc2c3c(ccc2n1)OC[C@H](CN1CCN(c2ccc4cc(C#N)ccc4n2)C[C@H]1C)O3`, in assay [1], the Imax came to 92%. Further, the results for the pKi in assay [4] and in assay [5] were 8.55 and 7.05, respectively. The compound further gave a pIC50 in assay [3] of 6.74.
Turning to `Cc1ccc2c3c(ccc2n1)OC[C@H](CN1CCN(c2ccc4ccccc4n2)C[C@H]1C)O3`, the Imax in assay [1] stood at 85%. In assay [3], this compound had a negative-log IC50 (pIC50) of 6.93.
In the case of `Cc1ccc2c3c(ccc2n1)OC[C@H](CN1CCN(c2ccc4ccccc4n2)CC1)O3`, in assay [1], the Imax stood at 100%. In addition, in assay [5], the pKi is 7.12. Besides, the negative logarithm of the IC50 (pIC50) in assay [3] was 5.31.
For the compound `Cc1ccc2c3c(ccc2n1)OC[C@H](CN1CCN(c2ccc4cc(Br)ccc4n2)CC1)O3`, the Imax in assay [1] was 96%. In assay [5], this compound had a pKi of 7.90. The pIC50 in assay [3] was 6.81.
Turning to `Cc1ccc2c3c(ccc2n1)OC[C@H](CN1CCN(c2ccc4ccccc4n2)C[C@@H]1C)O3`, in assay [1], the Imax is 76.5%. This compound showed a negative logarithm of the Ki (pKi) in assay [5] of 7.99. Besides, the pIC50 in assay [3] is 5.72.
Regarding `Cc1ccc2c3c(ccc2n1)OC[C@H](CN1CCN(c2ccc4cc(F)ccc4n2)CC1)O3`, the Imax in assay [1] stood at 100%. For the same compound, the pKi in assay [4] was 7.48; in assay [5], 7.18. In addition, the pIC50 in assay [3] was 5.66.

One may read the pIC50 as −log10 of the IC50, conventionally taken in molar units. A high value points to a low IC50. Usually pKi stands for −log10 of the Ki, conventionally taken in molar units. High values mean a small Ki, low ones a large Ki.

These data come from ChEMBL document CHEMBL1151947, “Synthesis, potency, and in vivo evaluation of 2-piperazin-1-ylquinoline analogues as dual serotonin reuptake inhibitors and serotonin 5-HT1A receptor antagonists” (J Med Chem, 2009).
